# Data taken from ChEMBL document CHEMBL4831500, “Discovery of first-in-class imidazothiazole-based potent and selective ErbB4 (HER4) kinase inhibitors” (Eur J Med Chem, 2021).
# Key:
# [1] = tested on: Panel NCI-60 (60 carcinoma cell lines); test: Growth inhibition of human panel NCI-60 (60 carcinoma cells) assessed as growth percent at 10 uM measured after 48 hrs by SRB assay relative to control; assay type: functional; conditions: read-out: Activity
# [2] = tested on: NCI-H322M; test: Antiproliferative activity against human NCI-H322M cells assessed as cell growth inhibition measured after 48 hrs by SRB assay; assay type: functional, cell-based
# [3] = tested on: NCI-H522; test: Antiproliferative activity against human NCI-H522 cells assessed as cell growth inhibition measured after 48 hrs by SRB assay; assay type: functional, cell-based; conditions: NCI-H522, 48 h
# [4] = tested on: OVCAR-4; test: Antiproliferative activity against human OVCAR-4 cells assessed as cell growth inhibition measured after 48 hrs by SRB assay; assay type: functional, cell-based; conditions: OVCAR-4, 48 h
# [5] = tested on: HCC 2998; test: Antiproliferative activity against human HCC 2998 cells assessed as cell growth inhibition measured after 48 hrs by SRB assay; assay type: functional, cell-based; conditions: HCC 2998, 48 h
# [6] = tested on: SK-MEL-5; test: Antiproliferative activity against human SK-MEL-5 cells assessed as cell growth inhibition measured after 48 hrs by SRB assay; assay type: functional, cell-based; conditions: SK-MEL-5, 48 h
# [7] = tested on: MDA-MB-468; test: Antiproliferative activity against human MDA-MB-468 cells assessed as cell growth inhibition measured after 48 hrs by SRB assay; assay type: functional, cell-based; conditions: MDA-MB-468, 48 h
# [8] = tested on: U-251; test: Antiproliferative activity against human U-251 cells assessed as cell growth inhibition measured after 48 hrs by SRB assay; assay type: functional, cell-based; conditions: U-251, 48 h
# [9] = tested on: UO-31; test: Antiproliferative activity against human UO-31 cells assessed as cell growth inhibition measured after 48 hrs by SRB assay; assay type: functional, cell-based; conditions: UO-31, 48 h
# [10] = tested on: SNB-75; test: Antiproliferative activity against human SNB-75 cells assessed as cell growth inhibition measured after 48 hrs by SRB assay; assay type: functional, cell-based; conditions: SNB-75, 48 h
# [11] = tested on: HL-60(TB); test: Antiproliferative activity against human HL-60(TB) cells assessed as cell growth inhibition measured after 48 hrs by SRB assay; assay type: functional, cell-based; conditions: HL-60, 48 h
# [12] = tested on: DU-145; test: Antiproliferative activity against human DU-145 cells assessed as cell growth inhibition measured after 48 hrs by SRB assay; assay type: functional, cell-based; conditions: DU-145, 48 h
# [13] = tested on: MOLT-4; test: Antiproliferative activity against human MOLT-4 cells assessed as cell growth inhibition measured after 48 hrs by SRB assay; assay type: functional, cell-based; conditions: MOLT-4, 48 h
# [14] = target: Proto-oncogene tyrosine-protein kinase Src (Homo sapiens) (UniProt P12931); test: Inhibition of C-SRC (unknown origin) at 10 uM incubated for 40 mins in presence of Mg/ATP mix by [gamma p33]-ATP based scintillation counting method relative to control
# [15] = target: Fibroblast growth factor receptor 1 (Homo sapiens) (UniProt P11362); test: Inhibition of FGFR1 (unknown origin) at 10 uM incubated for 40 mins in presence of Mg/ATP mix by [gamma p33]-ATP based scintillation counting method relative to control
# [16] = target: Epidermal growth factor receptor (Homo sapiens, UniProt P00533); test: Inhibition of EGFR (unknown origin) at 10 uM incubated for 40 mins in presence of Mg/ATP mix by [gamma p33]-ATP based scintillation counting method relative to control
# [17] = tested on: HL-60(TB); test: Antiproliferative activity against human HL-60(TB) cells assessed as cell growth inhibition at 10 uM measured after 48 hrs by SRB assay relative to control; assay type: functional
# [18] = tested on: OVCAR-4; test: Antiproliferative activity against human OVCAR-4 cells assessed as cell growth inhibition at 10 uM measured after 48 hrs by SRB assay relative to control; assay type: functional
# [19] = target: Vascular endothelial growth factor receptor 2 (Homo sapiens, UniProt P35968); test: Inhibition of KDR (unknown origin) at 10 uM incubated for 40 mins in presence of Mg/ATP mix by [gamma p33]-ATP based scintillation counting method relative to control
# [20] = tested on: UO-31; test: Antiproliferative activity against human UO-31 cells assessed as cell growth inhibition at 10 uM measured after 48 hrs by SRB assay relative to control; assay type: functional
# [21] = target: RAF proto-oncogene serine/threonine-protein kinase (Homo sapiens, UniProt P04049); test: Inhibition of RAF1 (unknown origin) at 10 uM incubated for 40 mins in presence of Mg/ATP mix by [gamma p33]-ATP based scintillation counting method relative to control
# [22] = Cytotoxicity against human WI-38 cells assessed as cell growth inhibition at 10 uM measured after 48 hrs by SRB assay relative to control; assay type: cell-based
# [23] = target: Serine/threonine-protein kinase B-raf (Homo sapiens, UniProt P15056); test: Inhibition of wild type B-RAF (unknown origin) at 10 uM incubated for 40 mins in presence of Mg/ATP mix by [gamma p33]-ATP based scintillation counting method relative to control
# [24] = tested on: MDA-MB-468; test: Antiproliferative activity against human MDA-MB-468 cells assessed as cell growth inhibition at 10 uM measured after 48 hrs by SRB assay relative to control; assay type: functional
# [25] = tested on: Serine/threonine-protein kinase B-raf (Homo sapiens), P15056 [V600E]; test: Inhibition of BRAF V600E mutant (unknown origin) at 10 uM incubated for 40 mins in presence of Mg/ATP mix by [gamma p33]-ATP based scintillation counting method relative to control
# [26] = tested on: DU-145; test: Antiproliferative activity against human DU-145 cells assessed as cell growth inhibition at 10 uM measured after 48 hrs by SRB assay relative to control; assay type: functional
# [27] = tested on: WI-38; test: Cytotoxicity against human WI-38 cells assessed as cell growth inhibition measured after 48 hrs by SRB assay; assay type: cell-based; conditions: WI-38, 48 h
# [28] = tested on: SK-MEL-5; test: Antiproliferative activity against human SK-MEL-5 cells assessed as cell growth inhibition at 10 uM measured after 48 hrs by SRB assay relative to control; assay type: functional
# [29] = tested on: SNB-75; test: Antiproliferative activity against human SNB-75 cells assessed as cell growth inhibition at 10 uM measured after 48 hrs by SRB assay relative to control; assay type: functional
# [30] = target: Receptor tyrosine-protein kinase erbB-2 (Homo sapiens) (UniProt P04626); test: Inhibition of ErbB2 (unknown origin) at 10 uM incubated for 40 mins in presence of Mg/ATP mix by [gamma p33]-ATP based scintillation counting method relative to control
# [31] = target: Receptor tyrosine-protein kinase erbB-4 (Homo sapiens, UniProt Q15303); test: Inhibition of ErbB4 (unknown origin) at 10 uM incubated for 40 mins in presence of Mg/ATP mix by [gamma p33]-ATP based scintillation counting method relative to control
# Vascular endothelial growth factor receptor 2, sequence (P35968 whole entry): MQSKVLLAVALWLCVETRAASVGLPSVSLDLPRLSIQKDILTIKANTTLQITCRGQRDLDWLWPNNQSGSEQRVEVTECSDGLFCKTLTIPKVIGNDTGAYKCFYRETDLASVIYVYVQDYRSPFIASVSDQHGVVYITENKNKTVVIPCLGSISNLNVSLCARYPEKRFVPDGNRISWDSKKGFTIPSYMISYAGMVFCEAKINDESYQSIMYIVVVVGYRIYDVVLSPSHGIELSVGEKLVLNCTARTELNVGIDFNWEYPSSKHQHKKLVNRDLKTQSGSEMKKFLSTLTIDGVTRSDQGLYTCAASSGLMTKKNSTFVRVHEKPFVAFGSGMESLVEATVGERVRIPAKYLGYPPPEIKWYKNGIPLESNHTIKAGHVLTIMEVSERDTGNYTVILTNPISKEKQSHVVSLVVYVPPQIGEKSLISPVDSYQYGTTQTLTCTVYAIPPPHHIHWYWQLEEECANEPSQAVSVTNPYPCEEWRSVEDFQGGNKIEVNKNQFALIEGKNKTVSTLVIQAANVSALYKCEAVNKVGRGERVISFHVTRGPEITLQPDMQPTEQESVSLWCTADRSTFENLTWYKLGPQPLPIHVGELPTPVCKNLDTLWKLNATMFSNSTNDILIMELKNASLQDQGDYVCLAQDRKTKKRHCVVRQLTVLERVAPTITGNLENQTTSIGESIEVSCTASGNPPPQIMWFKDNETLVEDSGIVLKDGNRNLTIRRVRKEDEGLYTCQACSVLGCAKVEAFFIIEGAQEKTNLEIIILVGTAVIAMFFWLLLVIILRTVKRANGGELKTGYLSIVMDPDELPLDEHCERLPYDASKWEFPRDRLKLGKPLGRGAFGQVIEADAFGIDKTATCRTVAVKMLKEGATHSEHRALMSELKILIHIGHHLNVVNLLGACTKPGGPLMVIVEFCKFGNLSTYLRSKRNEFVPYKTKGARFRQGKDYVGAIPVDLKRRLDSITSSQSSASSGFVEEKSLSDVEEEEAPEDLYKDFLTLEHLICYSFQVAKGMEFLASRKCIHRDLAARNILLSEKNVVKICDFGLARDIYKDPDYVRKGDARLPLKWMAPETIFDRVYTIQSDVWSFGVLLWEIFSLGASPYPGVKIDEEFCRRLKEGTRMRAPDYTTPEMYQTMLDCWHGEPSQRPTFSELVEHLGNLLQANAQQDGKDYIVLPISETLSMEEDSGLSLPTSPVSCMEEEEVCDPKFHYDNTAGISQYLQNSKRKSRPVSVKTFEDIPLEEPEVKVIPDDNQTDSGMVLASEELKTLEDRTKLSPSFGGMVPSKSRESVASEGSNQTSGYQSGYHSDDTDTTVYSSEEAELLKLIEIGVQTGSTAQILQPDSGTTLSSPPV
# Proto-oncogene tyrosine-protein kinase Src (Homo sapiens), sequence (P12931 2-536 limits assumed): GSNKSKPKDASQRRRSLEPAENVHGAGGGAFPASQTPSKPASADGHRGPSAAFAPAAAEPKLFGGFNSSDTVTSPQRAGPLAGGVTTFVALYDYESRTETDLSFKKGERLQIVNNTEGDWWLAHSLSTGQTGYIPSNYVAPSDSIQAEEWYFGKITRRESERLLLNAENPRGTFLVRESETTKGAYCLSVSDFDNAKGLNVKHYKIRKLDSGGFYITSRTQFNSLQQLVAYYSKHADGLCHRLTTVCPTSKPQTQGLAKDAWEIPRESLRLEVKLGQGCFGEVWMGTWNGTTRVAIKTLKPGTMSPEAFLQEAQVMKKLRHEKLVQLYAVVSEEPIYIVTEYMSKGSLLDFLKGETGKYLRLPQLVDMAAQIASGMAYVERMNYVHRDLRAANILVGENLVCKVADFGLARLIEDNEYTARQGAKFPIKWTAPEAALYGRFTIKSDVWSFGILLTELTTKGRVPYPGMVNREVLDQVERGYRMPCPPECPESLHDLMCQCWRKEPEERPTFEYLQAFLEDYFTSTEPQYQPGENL
# RAF proto-oncogene serine/threonine-protein kinase, sequence (P04049 whole entry): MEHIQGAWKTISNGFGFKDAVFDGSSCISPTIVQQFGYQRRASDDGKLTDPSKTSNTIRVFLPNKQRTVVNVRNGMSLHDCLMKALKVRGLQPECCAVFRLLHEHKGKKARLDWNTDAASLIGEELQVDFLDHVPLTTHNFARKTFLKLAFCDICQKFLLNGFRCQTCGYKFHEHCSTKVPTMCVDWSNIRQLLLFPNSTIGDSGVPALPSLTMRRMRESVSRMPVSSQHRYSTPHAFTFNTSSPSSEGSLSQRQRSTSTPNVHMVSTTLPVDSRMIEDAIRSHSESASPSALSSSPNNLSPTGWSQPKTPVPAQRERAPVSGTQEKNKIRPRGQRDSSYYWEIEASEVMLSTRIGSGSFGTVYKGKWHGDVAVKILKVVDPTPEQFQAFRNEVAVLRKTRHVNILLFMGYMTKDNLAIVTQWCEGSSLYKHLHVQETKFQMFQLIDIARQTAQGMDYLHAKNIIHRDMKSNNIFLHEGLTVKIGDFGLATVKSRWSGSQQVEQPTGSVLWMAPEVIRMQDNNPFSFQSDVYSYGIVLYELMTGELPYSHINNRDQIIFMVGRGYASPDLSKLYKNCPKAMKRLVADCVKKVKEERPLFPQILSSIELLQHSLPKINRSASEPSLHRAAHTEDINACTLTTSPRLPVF
# Fibroblast growth factor receptor 1 (Homo sapiens), sequence (P11362 22-822 limits assumed): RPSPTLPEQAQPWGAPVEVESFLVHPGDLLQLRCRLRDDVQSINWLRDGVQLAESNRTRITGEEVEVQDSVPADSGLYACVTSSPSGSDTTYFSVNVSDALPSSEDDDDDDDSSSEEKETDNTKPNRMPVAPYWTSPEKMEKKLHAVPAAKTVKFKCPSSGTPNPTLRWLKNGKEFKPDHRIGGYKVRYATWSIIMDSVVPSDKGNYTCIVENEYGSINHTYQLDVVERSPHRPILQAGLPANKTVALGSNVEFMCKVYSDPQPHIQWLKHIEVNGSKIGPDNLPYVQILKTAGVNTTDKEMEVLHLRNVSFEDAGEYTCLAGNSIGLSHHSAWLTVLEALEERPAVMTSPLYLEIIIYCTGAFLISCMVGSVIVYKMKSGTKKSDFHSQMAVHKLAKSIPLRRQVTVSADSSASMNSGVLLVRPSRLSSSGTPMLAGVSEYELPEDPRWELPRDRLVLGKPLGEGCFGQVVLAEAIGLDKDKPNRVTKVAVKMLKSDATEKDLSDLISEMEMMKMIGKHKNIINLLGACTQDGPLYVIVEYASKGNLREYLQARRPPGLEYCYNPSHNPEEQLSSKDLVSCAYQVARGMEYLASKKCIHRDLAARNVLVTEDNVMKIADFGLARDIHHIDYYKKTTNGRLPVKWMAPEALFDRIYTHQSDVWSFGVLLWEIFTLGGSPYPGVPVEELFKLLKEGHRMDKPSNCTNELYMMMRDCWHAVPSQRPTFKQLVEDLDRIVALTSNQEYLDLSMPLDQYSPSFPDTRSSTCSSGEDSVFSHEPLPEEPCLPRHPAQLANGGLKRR
# Serine/threonine-protein kinase B-raf, sequence (P15056 whole entry): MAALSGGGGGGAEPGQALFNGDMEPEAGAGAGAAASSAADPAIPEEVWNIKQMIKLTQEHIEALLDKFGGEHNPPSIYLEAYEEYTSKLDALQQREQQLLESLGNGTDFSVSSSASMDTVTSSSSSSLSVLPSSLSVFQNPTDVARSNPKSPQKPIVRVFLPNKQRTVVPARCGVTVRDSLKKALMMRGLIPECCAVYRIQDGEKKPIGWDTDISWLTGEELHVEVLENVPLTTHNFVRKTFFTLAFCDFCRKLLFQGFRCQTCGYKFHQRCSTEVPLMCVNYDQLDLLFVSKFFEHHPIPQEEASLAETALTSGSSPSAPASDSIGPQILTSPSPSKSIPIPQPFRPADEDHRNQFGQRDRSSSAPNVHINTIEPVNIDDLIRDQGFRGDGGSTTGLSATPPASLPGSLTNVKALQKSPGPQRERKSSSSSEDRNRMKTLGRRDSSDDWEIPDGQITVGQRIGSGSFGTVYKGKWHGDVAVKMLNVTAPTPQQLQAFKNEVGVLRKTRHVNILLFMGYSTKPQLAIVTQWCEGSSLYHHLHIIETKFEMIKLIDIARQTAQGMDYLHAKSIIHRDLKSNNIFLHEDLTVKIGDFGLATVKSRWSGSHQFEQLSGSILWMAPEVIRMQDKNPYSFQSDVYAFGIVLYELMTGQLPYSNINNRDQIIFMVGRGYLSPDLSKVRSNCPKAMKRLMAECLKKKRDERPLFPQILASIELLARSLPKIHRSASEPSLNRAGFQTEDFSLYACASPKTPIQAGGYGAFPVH
# Serine/threonine-protein kinase B-raf (Homo sapiens), P15056 [V600E], sequence (P15056 whole entry V600E): as the sequence (P15056 whole entry) above, with V600E counted along it
compound,measurement,setting,value
CS(=O)(=O)c1nccc(-c2c(-c3ccc(OCCN4CCOCC4)cc3)nc3sccn23)n1,growth at 10 µM,[1],101%
CS(=O)(=O)c1cccc(-c2c(-c3cccc(OCCc4ccccc4)c3)nc3sccn23)c1,growth at 10 µM,[1],95.3%
CS(=O)(=O)c1nccc(-c2c(-c3ccc(OCCN4CCCC4)cc3)nc3sccn23)n1,growth at 10 µM,[1],101%
C=CC(=O)N1CCC[C@@H](n2nc(-c3ccc(Oc4ccccc4)cc3)c3c(N)ncnc32)C1 [IBRUTINIB],IC50,[2],0.1 µM
same,IC50,[3],0.06 µM
same,IC50,[4],7.94 µM
same,IC50,[5],15.8 µM
same,IC50,[6],6.31 µM
same,IC50,[7],0.03 µM
same,IC50,[8],6.31 µM
same,IC50,[9],1.26 µM
same,IC50,[10],3.16 µM
same,IC50,[11],19.9 µM
same,IC50,[12],2 µM
same,IC50,[13],3.98 µM
CS(=O)(=O)c1cccc(-c2c(-c3cccc(OCCc4ccc(F)cc4)c3)nc3sccn23)c1,growth at 10 µM,[1],82.9%
CS(=O)(=O)c1nccc(-c2c(-c3ccc(O)cc3)nc3sccn23)n1,growth at 10 µM,[1],99.7%
CS(=O)(=O)c1nccc(-c2c(-c3cccc(OCc4ccc(F)cc4)c3)nc3occn23)n1,growth at 10 µM,[1],89.7%
CC(C)N(CCOc1cccc(-c2nc3sccn3c2-c2ccnc(S(C)(=O)=O)n2)c1)C(C)C,growth at 10 µM,[1],81.8%
O=C(COc1cccc(-c2nc3sccn3c2-c2ccccc2)c1)c1ccccc1,growth at 10 µM,[1],84.6%
CS(=O)(=O)c1cccc(-c2c(-c3cccc(OCc4ccccc4)c3)nc3sccn23)c1,growth at 10 µM,[1],87.6%
CNC(=O)c1cc(Oc2ccc(NC(=O)Nc3ccc(Cl)c(C(F)(F)F)c3)cc2)ccn1 [SORAFENIB],IC50,[3],5.01 µM
same,IC50,[6],2.51 µM
c1ccc(COc2cccc(-c3nc4sccn4c3-c3ccccc3)c2)cc1,growth at 10 µM,[1],99.3%
CS(=O)(=O)c1nccc(-c2c(-c3cccc(OCCc4ccccc4)c3)nc3sccn23)n1,growth at 10 µM,[1],96%
COc1ccc(-c2nc3sccn3c2-c2ccnc(S(C)(=O)=O)n2)cc1,growth at 10 µM,[1],73%
CS(=O)(=O)c1nccc(-c2c(-c3ccc(OCc4ccccc4)cc3)nc3sccn23)n1,growth at 10 µM,[1],95.1%
Oc1cccc(-c2nc3sccn3c2-c2ccncn2)c1,growth at 10 µM,[1],85.5%
Oc1cccc(-c2nc3sccn3c2-c2ccccc2)c1,growth at 10 µM,[1],94%
CS(=O)(=O)c1nccc(-c2c(-c3cccc(OCC(=O)c4ccccc4)c3)nc3sccn23)n1,growth at 10 µM,[1],94%
CS(=O)(=O)c1nccc(-c2c(-c3cccc(OS(N)(=O)=O)c3)nc3sccn23)n1,growth at 10 µM,[1],97.9%
CS(=O)(=O)c1nccc(-c2c(-c3cccc(O)c3)nc3occn23)n1,growth at 10 µM,[1],102%
c1ccc(CCOc2cccc(-c3nc4sccn4c3-c3ccccc3)c2)cc1,growth at 10 µM,[1],98.9%
O=C(COc1cccc(-c2nc3sccn3c2-c2ccncn2)c1)c1ccccc1,growth at 10 µM,[1],97%
CS(=O)(=O)c1nccc(-c2c(-c3ccc(OCCc4ccccc4)cc3)nc3sccn23)n1,growth at 10 µM,[1],91.2%
Fc1ccc(CCOc2cccc(-c3nc4sccn4c3-c3ccccc3)c2)cc1,growth at 10 µM,[1],87.5%
Fc1ccc(COc2cccc(-c3nc4sccn4c3-c3ccncn3)c2)cc1,growth at 10 µM,[1],76.3%
CS(=O)(=O)c1nccc(-c2c(-c3cccc(O)c3)nc3sccn23)n1,growth at 10 µM,[1],90%
COc1cccc(-c2nc3occn3c2-c2ccnc(S(C)(=O)=O)n2)c1,growth at 10 µM,[1],96%
c1ccc(CCOc2cccc(-c3nc4sccn4c3-c3ccncn3)c2)cc1,growth at 10 µM,[1],96.4%
CS(=O)(=O)c1nccc(-c2c(-c3cccc(OCc4ccccc4)c3)nc3occn23)n1,growth at 10 µM,[1],101%
CS(=O)(=O)c1nccc(-c2c(-c3cccc(OCCN4CCOCC4)c3)nc3sccn23)n1,growth at 10 µM,[1],83.5%
CS(=O)(=O)c1nccc(-c2c(-c3cccc(OCc4ccc(F)cc4)c3)nc3sccn23)n1,IC50,[2],1.82 µM
same,inhibition,[14],2.46%
same,inhibition,[15],-0.04%
same,IC50,[4],3.98 µM
same,IC50,[6],1.54 µM
same,inhibition,[16],-5.54%
same,inhibition at 10 µM,[17],56.3%
same,inhibition at 10 µM,[18],34.9%
same,inhibition,[19],24.8%
same,inhibition at 10 µM,[20],124%
same,inhibition,[21],10.8%
same,IC50,[7],1.8 µM
same,"inhibition at 48 h, 10 µM",[22],21.6%
same,growth at 10 µM,[1],60.6%
same,inhibition,[23],9.62%
same,inhibition at 10 µM,[24],164%
same,inhibition,[25],33.6%
same,inhibition at 10 µM,[26],154%
same,IC50,[9],1.68 µM
same,IC50,[27],12.6 µM
same,IC50,[10],15.6 µM
same,inhibition at 10 µM,[28],94.6%
same,inhibition at 10 µM,[29],4.08%
same,IC50,[11],3.36 µM
same,inhibition,[30],-2.99%
same,IC50,[12],1.89 µM
same,inhibition,[31],60.2%
CC(C)N(CCOc1ccc(-c2nc3sccn3c2-c2ccnc(S(C)(=O)=O)n2)cc1)C(C)C,growth at 10 µM,[1],81.1%
Fc1ccc(CCOc2cccc(-c3nc4sccn4c3-c3ccncn3)c2)cc1,growth at 10 µM,[1],96%
COc1cccc(-c2nc3sccn3c2-c2cccc(S(C)(=O)=O)c2)c1,growth at 10 µM,[1],99.8%
COc1cccc(-c2nc3sccn3c2-c2ccccc2)c1,growth at 10 µM,[1],96.6%
CS(=O)(=O)c1nccc(-c2c(-c3cccc(OCCN4CCCC4)c3)nc3sccn23)n1,growth at 10 µM,[1],94.2%
CS(=O)(=O)c1cccc(-c2c(-c3cccc(O)c3)nc3sccn23)c1,growth at 10 µM,[1],99.2%
CS(=O)(=O)c1nccc(-c2c(-c3cccc(OCCc4ccc(F)cc4)c3)nc3sccn23)n1,growth at 10 µM,[1],91.6%
CS(=O)(=O)c1cccc(-c2c(-c3cccc(OCC(=O)c4ccccc4)c3)nc3sccn23)c1,growth at 10 µM,[1],91%
CS(=O)(=O)c1cccc(-c2c(-c3cccc(OCc4ccc(F)cc4)c3)nc3sccn23)c1,growth at 10 µM,[1],74.7%
CN(C)CCOc1cccc(-c2nc3sccn3c2-c2ccnc(S(C)(=O)=O)n2)c1,growth at 10 µM,[1],93.7%
CN(C)CCOc1ccc(-c2nc3sccn3c2-c2ccnc(S(C)(=O)=O)n2)cc1,growth at 10 µM,[1],102%
Fc1ccc(COc2cccc(-c3nc4sccn4c3-c3ccccc3)c2)cc1,growth at 10 µM,[1],97.8%
